In this test the test system is leptazol induced seizures in mice. Put plainly: potentiation of the threshold of leptazol induced seizures in mice. Conditions: ip. In kind it is in vivo. As for the experimental part: Potentiation of the threshold of leptazol induced seizures in mice by active compounds was measured by the method of Lichfiel et al (J. Pharmacol. Exp. Ther. (1949) Vol. 96 Page. 99).

Here are results for 2 compounds from patent US4868176A, “Novel imidazobenzodiazepines” (Roussel Uclaf, priority 1987, dated 1989).

Each structure is given as a SMILES string.

`CN1Cc2c(C(=O)C3CC3)ncn2-c2ccc(Cl)cc2C1=O` [Compound 2, (8-Chloro-5,6-dihydro-5-methyl-6-oxo-4H-imidazo[1,5-a][1,4]benzodiazepin-3-yl)-cyclopropylmethanone]: the “Leptazol Seizures ED50” value is “Not active”.

In the case of `CN1Cc2c(C(=O)C3CC3)ncn2-c2ccccc2C1=O` [Compound 1, 3-(5,6-dihydro-5-methyl-6-oxo-4H-imidazo[1,5a][1,4]benzodiazepinyl)-cyclopropylmethanone], the ED50 (Mus musculus) was in the range of 1 to 2 mg/kg.

As usually defined, the ED50 is the midpoint of the dose-response relation.
